Test results as given in PubChem BioAssay AID2060888 (Molecular Pharmacology Branch, DTP, NCI, 2025).

Test system: 695427-040-R-J1-PDC complex spheroid viability
Assay: Anticancer human tumor 695427-040-R-J1-PDC patient-derived colon adenocarcinoma cell line growth inhibition [RAS]
Conditions: for viability, T/C: stronger effect = lower value
Summary of the method: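 Tumour cells grown as complex spheroids with HUVEC endothelial cells and mesenchymal stem cells, treated with RAS pathway inhibitor combinations. Each agent spans half-log steps from near clinical Cmax, or 10 microM where Cmax is unknown.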

[1] = curve of first compound, second compound 0.0316 µM
[2] = curve of first compound, second compound 0.1 µM
[3] = curve of first compound, second compound 0.316 µM
[4] = curve of first compound, second compound 1 µM
[5] = curve of first compound, second compound 3.16 µM
[6] = curve of first compound, second compound 10 µM
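Note: viability read after seven days of drug exposure.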
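Throughout, for viability, T/C: 100% = DMSO vehicle control viability.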

Q: What does the source list for `CC1(C)CCC(Nc2ncc(C(F)(F)F)c(-c3c[nH]c4c(P(C)(C)=O)c(C#N)ccc34)n2)CN1` (stereo not given) + C#Cc1c(F)ccc2cc(O)cc(-c3ncc4c(N5CC6CCC(C5)N6)nc(OCC56CCCN5CC(F)C6)nc4c3F)c12?
A: IC50 [1]: > 0.3 µM; IC50 [2]: > 0.3 µM; IC50 [3]: > 0.3 µM; IC50 [4]: > 0.3 µM; IC50 [5]: 0.00319 µM; IC50 [6]: < 0.000949 µM; viability, T/C (second compound 0.0316 µM, first compound 0.000949 µM): 104%; viability, T/C (second compound 0.0316 µM, first compound 0.003 µM): 91.6%; viability, T/C (second compound 0.0316 µM, first compound 0.00949 µM): 84.4%; viability, T/C (second compound 0.0316 µM, first compound 0.03 µM): 79%; viability, T/C (second compound 0.0316 µM, first compound 0.0949 µM): 84.5%; viability, T/C (second compound 0.0316 µM, first compound 0.3 µM): 80.3%; viability, T/C (second compound 0.1 µM, first compound 0.000949 µM): 101%; viability, T/C (second compound 0.1 µM, first compound 0.003 µM): 87.8%; viability, T/C (second compound 0.1 µM, first compound 0.00949 µM): 84.3%; viability, T/C (second compound 0.1 µM, first compound 0.03 µM): 88.6%; viability, T/C (second compound 0.1 µM, first compound 0.0949 µM): 79%; viability, T/C (second compound 0.1 µM, first compound 0.3 µM): 73.2%; viability, T/C (second compound 0.316 µM, first compound 0.000949 µM): 87.2%; viability, T/C (second compound 0.316 µM, first compound 0.003 µM): 89.7%; viability, T/C (second compound 0.316 µM, first compound 0.00949 µM): 99.2%; viability, T/C (second compound 0.316 µM, first compound 0.03 µM): 74%; viability, T/C (second compound 0.316 µM, first compound 0.0949 µM): 76.8%; viability, T/C (second compound 0.316 µM, first compound 0.3 µM): 70.4%; viability, T/C (second compound 1 µM, first compound 0.000949 µM): 67.7%; viability, T/C (second compound 1 µM, first compound 0.003 µM): 64.5%; viability, T/C (second compound 1 µM, first compound 0.00949 µM): 59.9%; viability, T/C (second compound 1 µM, first compound 0.03 µM): 62.5%; viability, T/C (second compound 1 µM, first compound 0.0949 µM): 67.7%; viability, T/C (second compound 1 µM, first compound 0.3 µM): 57.8%; viability, T/C (second compound 3.16 µM, first compound 0.000949 µM): 66.8%; viability, T/C (second compound 3.16 µM, first compound 0.003 µM): 49.2%; viability, T/C (second compound 3.16 µM, first compound 0.00949 µM): 51.9%; viability, T/C (second compound 3.16 µM, first compound 0.03 µM): 48.6%; viability, T/C (second compound 3.16 µM, first compound 0.0949 µM): 48%; viability, T/C (second compound 3.16 µM, first compound 0.3 µM): 43.5%; viability, T/C (second compound 10 µM, first compound 0.000949 µM): 37.4%; viability, T/C (second compound 10 µM, first compound 0.003 µM): 39.2%; viability, T/C (second compound 10 µM, first compound 0.00949 µM): 43.2%; viability, T/C (second compound 10 µM, first compound 0.03 µM): 35.3%; viability, T/C (second compound 10 µM, first compound 0.0949 µM): 39.3%; viability, T/C (second compound 10 µM, first compound 0.3 µM): 34.3%

Q: What does the source list for `Cc1nc(N2CCC3(CC2)COC(C)C3N)c(CO)nc1Sc1ccnc(N)c1Cl` (stereo not given) + C#Cc1c(F)ccc2cc(O)cc(-c3ncc4c(N5CC6CCC(C5)N6)nc(OCC56CCCN5CC(F)C6)nc4c3F)c12?
A: IC50 [1]: > 10 µM; IC50 [2]: > 10 µM; IC50 [3]: 1.98 µM; IC50 [4]: 0.477 µM; IC50 [5]: 0.0363 µM; IC50 [6]: < 0.0316 µM; viability, T/C (second compound 0.0316 µM, first compound 0.0316 µM): 92.3%; viability, T/C (second compound 0.0316 µM, first compound 0.1 µM): 80.5%; viability, T/C (second compound 0.0316 µM, first compound 0.316 µM): 70.7%; viability, T/C (second compound 0.0316 µM, first compound 1 µM): 75%; viability, T/C (second compound 0.0316 µM, first compound 3.16 µM): 70.5%; viability, T/C (second compound 0.0316 µM, first compound 10 µM): 51.1%; viability, T/C (second compound 0.1 µM, first compound 0.0316 µM): 89.2%; viability, T/C (second compound 0.1 µM, first compound 0.1 µM): 78.1%; viability, T/C (second compound 0.1 µM, first compound 0.316 µM): 79.2%; viability, T/C (second compound 0.1 µM, first compound 1 µM): 60.9%; viability, T/C (second compound 0.1 µM, first compound 3.16 µM): 60.2%; viability, T/C (second compound 0.1 µM, first compound 10 µM): 51.9%; viability, T/C (second compound 0.316 µM, first compound 0.0316 µM): 78.7%; viability, T/C (second compound 0.316 µM, first compound 0.1 µM): 66.2%; viability, T/C (second compound 0.316 µM, first compound 0.316 µM): 56.7%; viability, T/C (second compound 0.316 µM, first compound 1 µM): 57.1%; viability, T/C (second compound 0.316 µM, first compound 3.16 µM): 50.5%; viability, T/C (second compound 0.316 µM, first compound 10 µM): 39.2%; viability, T/C (second compound 1 µM, first compound 0.0316 µM): 65.8%; viability, T/C (second compound 1 µM, first compound 0.1 µM): 63.2%; viability, T/C (second compound 1 µM, first compound 0.316 µM): 51.2%; viability, T/C (second compound 1 µM, first compound 1 µM): 42.1%; viability, T/C (second compound 1 µM, first compound 3.16 µM): 40.4%; viability, T/C (second compound 1 µM, first compound 10 µM): 26%; viability, T/C (second compound 3.16 µM, first compound 0.0316 µM): 51.3%; viability, T/C (second compound 3.16 µM, first compound 0.1 µM): 44%; viability, T/C (second compound 3.16 µM, first compound 0.316 µM): 38.1%; viability, T/C (second compound 3.16 µM, first compound 1 µM): 32.6%; viability, T/C (second compound 3.16 µM, first compound 3.16 µM): 23.5%; viability, T/C (second compound 3.16 µM, first compound 10 µM): 16.2%; viability, T/C (second compound 10 µM, first compound 0.0316 µM): 33.2%; viability, T/C (second compound 10 µM, first compound 0.1 µM): 27.7%; viability, T/C (second compound 10 µM, first compound 0.316 µM): 27.3%; viability, T/C (second compound 10 µM, first compound 1 µM): 18.6%; viability, T/C (second compound 10 µM, first compound 3.16 µM): 15.8%; viability, T/C (second compound 10 µM, first compound 10 µM): 10.3%

Q: What does the source list for `CCN1CCN(Cc2ccc(Nc3ncc(F)c(-c4cc(F)c5nc(C)n(C(C)C)c5c4)n3)nc2)CC1`?
A: viability, T/C (compound 0.00316 µM): 102% [middle of 4 runs]; viability, T/C (compound 0.01 µM): 84.3% [middle of 4 runs]; viability, T/C (compound 0.0316 µM): 92.2% [middle of 4 runs]; viability, T/C (compound 0.1 µM): 102% [middle of 4 runs]; viability, T/C (compound 0.316 µM): 98.7% [middle of 4 runs]; IC50 (curve of compound): > 1 µM
